Values quoted from earlier work in patent US20110189317A1, “Method for Inhibiting the Activity of DPP-IV and Lowering Blood Glucose Level” (Naturalendo Tech Co., Ltd., priority 2006, published 2011).
Read-outs that look alike come from different tables or passages of the source.

Tests used:
[1] = combined administration of Metformin with LAF237 or placebo, after 52 weeks; p<0.0001
[2] = tested on: insulin secretion; settings: read-out: EC50 (half-maximal effective concentration), insulin secretion

EC50 [2]	Molecule	HbA1c difference [1]	blood glucose level (GLP-1 dropping for 4 hours, patients with secondary failure on oral hypoglycemic agent)	blood glucose level (intravenously, continuously for 1 week, regular diet)
	N#C[C@@H]1CCCN1C(=O)CNC12CC3CC(CC(O)(C3)C1)C2 [LAF237]	1.1±0.2%		
~0.01 nM	GLP-1: incretin hormone composed of total 30 amino acids, facilitates insulin secretion		complete normalization in the blood glucose level	nearly normal blood glucose level
